The results in this text go back to patent US5821251A, “Nitrogen heterocycles” (John Wyeth & Brother Limited, priority 1994, dated 1998).

For test [1], the system named is transient outward potassium current (TOC) in GH3 rat pituitary cell line. Nature of the test: Procedure 2: blocking transient outward potassium currents (TOC) in the GH3 rat pituitary cell line. It is filed as cell-based. The settings on record: GH3 cells; for % Block of TOC, PROCEDURE 2 GH3 %: 100 μM. Here is the method: The compounds were also tested for blocking transient outward potassium currents (TOC) in the GH3 rat pituitary cell line according to the procedure below:
GH3 cells were obtained from either Flow Laboratories or European Centre for Animal Cell Cultures (Porton Down), and maintained in tissue culture using standard procedures and media for this cell line. Cells were plated on 35 mm plastic dishes and used subsequently for electophysiology with 1 to 10 days.
Currents were recorded using the whole-cell voltage clamp configuration of the patch clamp technique, using an Axopatch 1C amplifier (Axon Instruments). Patch electrodes were manufactured from aluminosilicate glass tubing (Clark Electomedical SM150F-10) and heat polished prior to use. Resistance was 1-5 M.OMEGA.. No electrode coating was necessary for whole-cell recording. Signal acquisition and analysis was performed using pClamp software (Axon Instruments). A p-on-4 subtraction procedure was used to remove leak and capacitative currents on line. A holding potential of -100 mV was routinely used: this avoided accumulation of slow voltage-dependent inactivation.
Two main protocols were used in testing drugs. 1) Current-voltage (I-V) curves were collected, with incrementing steps of either 10 or 20 mV. Full I-V curves were obtained both in control and drug solutions. 2) a `pharmacology` program, which involved single voltage steps fromm -100 to +60 mV, applied and collected at 20 s intervals. Compounds under investigation were applied via a `U` tube rapid application system to a small area of the recording chamber. Drug applications were always bracketed by control solutions to ensure reversibility. The recording chamber was continously perfused at 1-5 ml.min^-1. Results are expressed at % of control peak current (step form -100 to +60 mV). However, where drugs have a time dependent effect on TOC, i.e acceleration of TOC decay, results are also expressed as a % of total charge transferred within a defined period of the voltage step from -100 to +60 mV.
The standard extracellular solution contained (in mM): NaCl 135 (or choline or TRIS chloride); KCl 5; MgCl2 4; EGTA 1; TEACl 10; HEPES 10; glucose 25; pH set to 7.4 with NaOH. TTX was usually at 100-200 nM.
The intracellular (pipette) solution was comprised of (in mM): K aspartate 120; KCl 20; MgCl2 1; cAMP 1; MgATP 2; EGTA 10; HEPES 10; pH 7.4 with KOH. Other intracellular substrates were often used without noticeable effect. This solution was stored in 1 ml aliquots at -4° C., and filtered at 0.2 μm.
These recording solutions precluded activation of voltage dependent Na, Ca, delayed rectifier and Ca-activated K currents. The resulting whole-cell currents chiefly comprised the transient outward potassium current, switching on with third power kinetics reaching peak amplitudes of ~1 nA at +60 mV, and a double exponential decay (time constants of ~30 and 160 ms at +60 mV). There is no significant change in current amplitude within the normal recording period, which may extend for up to 90 min. One dish of cells usually lasts several hours.
The standard compound 4-aminopyridine is a block @ 1-5 mM. (80% block at 5 mM).

Test [2] concerns voltage gated potassium channels (transient outward current, TOC) in dorsal root ganglion (DRG) cells. Nature of the test: Procedure 1: modulation of voltage-activated K^+ currents in dorsal root ganglion (DRG) cells, block of TOC. In kind it is cell-based. An excerpt:
They may therefore by used to treat CNS disorders as described above such as depression, pain psychoses, anxiety, movement disorders (such as Parkinson's disease) and multiple sclerosis and in enhancing cognition, memory and learning.
Procedure 1 Modulation of voltage-activated K^+ currents in dorsal root ganglion (DRG) cells:
The method used in the culture or dorsal root ganglion cells is similar to that described by Wood et. al., Capsaicin induced ion fluxes in dorsal root ganglion cells in culture, J. Neuroscience, 8, 3208-3220) (1988). Dorsal root ganglia are dissected mainly from around the lumbar and thoracic vertebrae and placed in a conical centrifuge tube containing Ham's F14 nutrient mixture (F14:Imperial Laboratories) plus horse serum (HS: GIBCO or Flow). When all ganglia have been collected (ex ca. 14 pups) the excess medium is removed and the ganglia incubated for 30 min in "F14+HS" containing 0.1% collagenase Type 1A-S (Sigma). Excess medium is removed, ganglia washed in 4 ml F14 (no HS), resuspended and spun down at 900 g for 10 s. The supernatant is again removed and replaced with 1.8 ml F14 (no HS) plus 0.2 ml trypsin (GIBCO) at a final concentration of 0.25%. The ganglia are then incubated at 37° C. for 30 min agitating every 10 min to prevent clumping. The trypsinisation is inhibited by the addition of 6 ml "F14+HS" and cells are resuspended and centrifuged as before. The medium is removed and 2 ml added of "F14+HS" containing 0.4% DNAase 1 (Sigma). The ganglia are then triturated gently 15-20× using a siliconised pasteur pipette, filtered through a […] nylon mesh filter and collected into a centrifuge tube. The filter is further washed with 2 ml of "F14+HS" which is collected into the same tube. The suspension is spun at 900 g for 3 min, the supernatant removed and the cells resuspended in DRG Growth Medium (DRG-GM) which consists of: HAMS F14 nutrient mixture (40%, v/v), HS(10%, v/v) C6 conditioned medium (50%, v/v), penicillin/streptomycin (100 U/ml; 100 μg/ml) and NGF (30 μg/ml). Cells are then plated out onto five 60 mm poly-L-lysine-coated tissue culture petri dishes (see below).
After a few days in culture (3-7 days, usually), cells are resuspended from 60 mm dishes using a 0.25% solution of trypsin in F14. An equal volume of DRG-GM is added to inhibit the trypsin, the cells are spun at 900 g for 5 minutes and resuspended in 0.25-0.5 ml of DRG-GM. Neurites are removed by gentle trituration through a 21 g syringe needle (15-20 strokes) and a drop of the cell suspension is then placed on each of 5-6 poly-D-lysine- and laminin-coated 35 mm petri dishes (see below). After 30 minutes incubation at 37° C., each plate is flooded with ca 1.5 ml DRG-GM and after about 1 hour incubation, cells are ready for electrophysiological recording. This final step is carried out specifically in order to remove neurites which hinder good voltage-clamp of the cells.
2 ml of poly-D-lysine (Sigma), reconstituted in distilled water to 100 μg/ml, are added to each plate and left for 1-2 hours. Plates are then washed with water and left to dry. Laminin (5 μg/ml) is added as a drop to the centre of plates (previously coated with poly-D-Lys), left for 45 min before removal of excess and use of plates.
Recordings are made using an AxoClamp-2A (Axon Instruments Inc) switiching clamp amplifier using patch electrodes (4-8 Mohms), made from borosilicate glass capillary tubes (GC150TF-10, Clark Electromedical) and fire-polished. Electrodes are filled with (in mM): 140 K Gluconate, 2 MgCl2, 1.1 EGTA/KOH, 5 HEPES, 20 sucrose, 2 MgATP, 0.2 GTP; pH set to 7.2 with KOH and osmolarity adjusted with sucrose to 310 mOsm. The electrodes are then and dipped in Sigmacote (Sigma) prior to recording to reduce stray capacitance. […]

Take `COc1ccc(CC2CCC3NCC(CO)CC3C2)cc1` (stereo not drawn) [Example 1, 1,2,3,4,4a,5,6,7,8,8a-Decahydro-3-hydroxymethyl-6-((4-methoxyphenyl)methyl)quinoline]: the “% Block of TOC, PROCEDURE 2 GH3 %” value in test [1] is 55%.
For the compound `COc1ccc(C[C@@H]2CC[C@H]3NC[C@H](CO)C[C@@H]3C2)cc1` (racemic) [Example 2, (±)-(3RS,4aSR,6RS,8aRS)-1,2,3,4,4a,5,6,7,8,8a-Decahydro-3-hydroxymethyl-6-((4-methoxyphenyl)methyl)quinoline], the “% Block of TOC, PROCEDURE 2 GH3 %” value in test [1] is 31%.
As for `COc1ccc(C[C@H]2CC[C@H]3NCCC[C@H]3C2)cc1` [Example 9, (-)-(4aS,6S,8aR)-3,4,4a,5,6,7,8,8a-Decahydro-6-((4-methoxyphenyl)methyl)quinoline], the “% Block of TOC, PROCEDURE 1 DRG %” value in test [2] (10 μM) is listed as 28%.
`Nc1ccncc1` [4-aminopyridine, reference compound]: in test [2] (at 1 mM), the “block of TOC (standard compound)” value is 100%. Besides, in test [1] (@ 1-5 mM), the “block (standard compound), in words” value is “block”. Further, the “block (standard compound)” value in test [1] (at 5 mM) stood at 80%.
For the compound `COc1ccc(C[C@H]2CC[C@H]3NC[C@H](CO)C[C@H]3C2)cc1` (racemic) [Example 4, (±)-(3RS,4aRS,6SR,8aRS)-1,2,3,4,4a,5,6,7,8,8a-Decahydro-3-hydroxymethyl-6-((4-methoxyphenyl)methyl)quinoline], the “% Block of TOC, PROCEDURE 1 DRG %” value in test [2] (100 μM) was found to be 60%. In test [1], the “% Block of TOC, PROCEDURE 2 GH3 %” value came to 56%.
In the case of `COc1ccc(C[C@H]2CC[C@@H]3[C@@H](CCCN3[C@H](C)c3ccccc3)C2)cc1` [Example 8, (+)-(1'R,4aS,6S,8aR)-1,2,3,4,4a,5,6,7,8,8a-Decahydro-6-((4-methoxyphenyl)methyl)-1-(1'-phenylethyl)quinoline], the “% Block of TOC, PROCEDURE 1 DRG %” value in test [2] (10 μM) is on record as 49%.
As to `COc1ccc(C[C@H]2CC[C@@H]3NC[C@H](CO)C[C@H]3C2)cc1` (relative stereo) [Example 3, (±)-(3RS,4aRS,6SR,8aSR)-1,2,3,4,4,a,5,6,7,8,8a-Decahydro-3-hydroxymethyl-6-((4-methoxyphenyl)methyl)quinoline], the “% Block of TOC, PROCEDURE 1 DRG %” value in test [2] (10 μM) was found to be 32%. Moreover, the “% Block of TOC, PROCEDURE 2 GH3 %” value in test [1] is recorded as 68%.
For `COc1ccc(C[C@@H]2CC[C@H]3NC[C@H](CO)C[C@@H]3C2)cc1` [Example 6, (+)-(3R,4aS,6R,8aR)-1,2,3,4,4a,5,6,7,8,8a-Decahydro-3-hydroxymethyl-6-((4-methoxyphenyl)methyl)quinoline], the “% Block of TOC, PROCEDURE 1 DRG %” value in test [2] (10 μM) is recorded as 29%.
